Laboratory results reported in ChEMBL document CHEMBL3045484, “Molecular modeling and synthesis of ZINC02765569 derivatives as protein tyrosine phosphatase 1B inhibitors: lead optimization study” (Med Chem Res, 2013).

Assays:
[1] = molecular target: T1, Tyrosine-protein phosphatase non-receptor type 1 (Rattus norvegicus) (UniProt P20417); assay: Inhibition of PTP1B in Rattus norvegicus (rat) L6 cells assessed as increase in 2-deoxy-D-[U-14C]-glucose uptake at 50 uM after 18 hr relative to control; assay type: cell-based
T1 sequence (whole entry): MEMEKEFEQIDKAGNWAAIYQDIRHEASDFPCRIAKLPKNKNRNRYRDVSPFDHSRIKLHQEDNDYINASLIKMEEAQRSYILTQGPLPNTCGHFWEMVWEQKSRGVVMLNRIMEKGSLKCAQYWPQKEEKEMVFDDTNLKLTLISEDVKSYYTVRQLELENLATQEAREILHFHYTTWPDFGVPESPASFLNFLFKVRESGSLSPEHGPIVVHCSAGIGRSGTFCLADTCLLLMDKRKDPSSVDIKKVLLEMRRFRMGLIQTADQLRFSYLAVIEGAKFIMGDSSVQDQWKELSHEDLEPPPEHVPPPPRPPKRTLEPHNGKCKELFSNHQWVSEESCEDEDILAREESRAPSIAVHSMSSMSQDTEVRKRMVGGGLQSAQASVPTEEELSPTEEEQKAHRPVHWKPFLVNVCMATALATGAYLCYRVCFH

[2] = molecular target: T2, Tyrosine-protein phosphatase non-receptor type 1 (Homo sapiens) (UniProt P18031); assay: Inhibition of Homo sapiens (human) recombinant PTP1B assessed as decrease in free phosphate release at 10 uM by malachite staining relative to control
T2 sequence (whole entry): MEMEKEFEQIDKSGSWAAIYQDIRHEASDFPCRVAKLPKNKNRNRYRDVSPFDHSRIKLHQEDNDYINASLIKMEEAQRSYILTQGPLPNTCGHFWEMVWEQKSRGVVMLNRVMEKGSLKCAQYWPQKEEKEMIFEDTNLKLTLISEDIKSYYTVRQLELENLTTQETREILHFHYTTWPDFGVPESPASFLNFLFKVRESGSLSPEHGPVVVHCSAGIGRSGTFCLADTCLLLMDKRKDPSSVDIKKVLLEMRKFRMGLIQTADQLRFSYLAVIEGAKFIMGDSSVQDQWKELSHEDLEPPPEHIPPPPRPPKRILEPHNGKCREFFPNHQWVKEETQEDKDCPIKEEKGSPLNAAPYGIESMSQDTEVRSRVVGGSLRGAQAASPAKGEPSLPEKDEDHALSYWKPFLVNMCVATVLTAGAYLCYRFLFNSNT

Row | inhibition [1] [%] | inhibition [2] [%] | Compound
1 | 28.7 | 56.2 | O=C(CSc1nc2ccccc2s1)Nc1cc(C(=O)O)ccc1Cl
2 | 37.6 | 36.6 | O=C(CSc1nc2c([N+](=O)[O-])cccc2[nH]1)Nc1cc(C(=O)O)ccc1Cl
3 | 59.2 | 24.2 | O=C(CSc1nc2ccccc2s1)Nc1cccc(C(=O)O)c1
4 | 29.2 | 53.9 | O=C(CSc1nc2ccccc2s1)Nc1cc(C(=O)O)ccc1O
5 | 26.6 | 62.7 | COc1cccc2[nH]c(SCC(=O)Nc3cc(C(=O)O)ccc3Cl)nc12
6 | 22.5 | 18.7 | O=C(CSc1nc2ccccc2[nH]1)Nc1ccc(C(=O)O)cc1
7 | 39.6 | 66.4 | O=C(CSc1nc2ccccc2s1)Nc1ccc(C(=O)O)cc1
8 | 58.6 | 23.2 | O=C(CSc1nc2ccccc2[nH]1)Nc1cc(C(=O)O)ccc1O
9 | 28.7 | 35.8 | O=C(CSc1nc2ccccc2[nH]1)Nc1cc(C(=O)O)ccc1Cl
10 | 31.4 | 20.9 | Cc1cccc2[nH]c(SCC(=O)Nc3cc(C(=O)O)ccc3Cl)nc12
